This is an account of results in ChEMBL document CHEMBL4414647, “Austalides, Osteoclast Differentiation Inhibitors from a Marine-Derived Strain of the Fungus Penicillium rudallense” (J Nat Prod, 2019).

Data set [1] in a line: Inhibition of RANKL-induced osteoclast differentiation in ICR mouse bone marrow macrophage assessed as reduction in multinucleated TRAP+ cells preincubated for 3 days for RANKL stimulation followed by compound addition and measured after 1 day by TRAP staining based microscopy. In kind it is functional. To be noted: BMDM, read-out: ED50 (the source's name).
Data set [2] has as its system BMDM. As to the kind of experiment: Cytotoxicity against ICR mouse bone marrow macrophage assessed as reduction in cell viability at 1 to 10 uM incubated for 3 days by WST-8 assay. In kind it is cell-based. To be noted: 72 h. For orientation: Formazan colour is commonly taken as a measure of viable cells.
In data set [3] the test system is BMDM. As to the kind of experiment: Inhibition of RANKL-induced osteoclast differentiation in ICR mouse bone marrow macrophage assessed as reduction in multinucleated TRAP+ cells at 10 uM preincubated for 3 days for RANKL stimulation followed by compound addition and measured after 1 day by TRAP staining based microscopy. In kind it is functional, cell-based.
The subject of data set [4] is BMDM. Nature of the data set: Cytotoxicity against ICR mouse bone marrow macrophage assessed as reduction in cell viability at 10 uM incubated for 3 days by WST-8 assay. In kind it is cell-based. The conditions noted are these: 72 h.

Active and inactive are the calls of the source. No cut-off for these calls is given here.

Turning to `COC(=O)CC[C@]1(C)[C@H]2Cc3c(c(C)c4c(c3OC)C(=O)OC4)O[C@@]2(C)CC[C@H]1C(C)(C)O`, the EC50 in data set [1] lay in the range of 1.9 to 2.8 µM. Further, the Activity entry in the data set on BMDM [2] is recorded as “Non-Toxic”.

On to `C/C(=C\Cc1c(O)c(C)c2c(c1O)C(=O)OC2)CC/C=C(\C)CCCC(C)(C)O`, for which the inhibition entry with BMDM [3] was “inactive”.

On to `COc1c2c(c(C)c3c1C(=O)OC3)O[C@@]1(C)CC[C@H]3C(C)(C)[C@@H](O)CC[C@]3(C)[C@H]1C2`, for which the EC50 in data set [1] was in the range of 1.9 to 2.8 µM. Also, in the data set on BMDM [2], the Activity entry is recorded as “Non-Toxic”.

For the compound `COC(=O)CC[C@]1(C)[C@H]2Cc3c(c(C)c4c(c3OC)C(=O)OC4)O[C@@]2(C)C[C@@H](O)[C@H]1C(C)(C)O`, the inhibition entry in the data set on BMDM [3] is “inactive”.

In the case of `Cc1c2c(c(O)c3c1O[C@@]1(C)CC[C@H]4C(C)(C)C(=O)CC[C@]4(C)[C@H]1C3)C(=O)OC2`, the EC50 in data set [1] lay in the range of 1.9 to 2.8 µM. In the data set on BMDM [4], the Activity result was “Toxic”.

For `COc1c2c(c(C)c3c1C(=O)OC3)O[C@@]1(C)CC[C@@H](C(C)(C)O)[C@](C)(CCC(=O)O)[C@H]1C2`, in the data set with BMDM [3], the inhibition entry is “inactive”.

Regarding `C=C(C)[C@@H]1[C@H](O)C[C@]2(C)Oc3c(C)c4c(c(OC)c3C[C@@H]2[C@@]1(C)CCC(=O)OC)C(=O)OC4`, the inhibition result in the data set with BMDM [3] was “inactive”.

As for `CC(C)=CCC/C(C)=C/CC/C(C)=C/Cc1c(O)c(C)c2c(c1O)C(=O)OC2`, the inhibition result with BMDM [3] was “inactive”.

For `C=C(C)[C@@H]1CC[C@]2(C)Oc3c(C)c4c(c(OC)c3C[C@@H]2[C@@]1(C)CCC(=O)OC)C(=O)OC4`, in the data set on BMDM [3], the inhibition entry is “inactive”.

In the case of `COc1c2c(c(C)c3c1C(=O)OC3)O[C@@]1(C)C[C@@H](O)[C@H]3C(C)(C)C(=O)CC[C@]3(C)[C@H]1C2`, the EC50 in data set [1] lay in the range of 1.9 to 2.8 µM. In addition, in the data set on BMDM [2], the Activity result was “Non-Toxic”.

As to `COc1c2c(c(C)c3c1C(=O)OC3)O[C@@]1(C)CC[C@H]3C(C)(C)OC(=O)CC[C@]3(C)[C@H]1C2`, the EC50 in data set [1] lay in the range of 1.9 to 2.8 µM. The Activity entry with BMDM [2] was “Non-Toxic”.

Consider `COc1c2c(c(C)c3c1C(=O)OC3)O[C@@]1(C)CC[C@@]3(O)C(C)(C)C(=O)CC[C@]3(C)[C@H]1C2`, for which the EC50 in data set [1] fell in the range of 1.9 to 2.8 µM. For the same compound, the Activity result in the data set with BMDM [2] was “Non-Toxic”.
